Data from patent US7772429B2, “Diphenylazetidinone with improved physiological properties, process for its preparation, medicaments comprising this compound, and its use” (Sanofi-Aventis Deutschland GmbH, priority 2003, dated 2010).
Values after ≈ are worked out from the molar mass of the structure shown.

Assays:
[1] = Solubility in aqueous buffers, FaSSIF and FeSSIF (HPLC/UV); format: physicochemical; settings: for solubility at 4 h: 25 °C, thermodynamic from solid
Procedure: FaSSIF (fasted State Simulating Intestinal Fluid) and FeSSIF (Fed State Simulating Intestinal Fluid) media which reflect the pH/solubilization conditions in the upper small intestine in the pre- and postprandial state, respectively, were used to test this improved solubility.
0.5 mg of the compound to be tested was weighed exactly into an Eppendorf cap, and 0.5 ml of the solvent in question (aqueous buffer) was added. The Eppendorf cap was then introduced into a thermomixer and, at 25° C., shaken at 1 400 rpm for 4 hours.
The Eppendorf cap was then introduced into a centrifuge. Following centrifugation, an aliquot of the supernatant was used to determine the amount dissolved, using HPLC/UV analysis.

[2] = Stability in solution in aqueous buffers (HPLC/UV); format: physicochemical; settings: for Increase of the area of the impurities in percent: 24 hours at 37° C.
Procedure: The stability of dissolved compound I and of dissolved C1 was determined in aqueous buffers in the pH range 1.2-8.0. 1 mg of the compound in question was weighed into a 5 ml measuring flask. A small amount of acetonitrile was used to dissolve the substance. The flask was then filled up to the mark with the aqueous buffer. The precipitated compound was centrifuged and the clear supernatant was then tested for stability in solution for 24 hours at 37° C. The samples were evaluated using HPLC/UV.

[3] = test system: cholesterol absorption (uptake of 14C-cholesterol by the liver); test: Cholesterol absorption test: uptake of 14C-cholesterol by the liver; format: in vivo, NMRI mice; settings: dose at which uptake of 14C-cholesterol by the liver is halved vs control group; mouse, peroral
[4] = FaSSIF, repetition of the tests
[5] = FeSSIF, repetition of the tests
[6] = aqueous buffer, pH 1.2, simulated gastric fluid, pH 1.2 aqueous buffer, 4 hours
[7] = aqueous buffer, pH 4.5, aqueous buffer, 4 hours
[8] = aqueous buffer, pH 6.8, aqueous buffer, 4 hours
[9] = aqueous buffer, pH 8, aqueous buffer, 4 hours
[10] = based on an available volume of 250 ml (Biopharmaceutical Classification System), best case

soluble dose ([1]; based on an available volume of 250 ml, worst case) | Compound | solubility at 4 h ([1]; FaSSIF, 4 hours) | solubility at 4 h [1, 4] | solubility at 4 h ([1]; FeSSIF, 4 hours) | solubility at 4 h [1, 5] | solubility at 4 h [1, 6] | solubility at 4 h [1, 7] | solubility at 4 h [1, 8] | solubility at 4 h [1, 9] | soluble dose [1, 10] | solubility at 4 h ([1]; water, shaken 4 hours) | Increase of the area of the impurities in percent ([2]; pH 1.2) | Increase of the area of the impurities in percent ([2]; pH 6.8) | Increase of the area of the impurities in percent ([2]; pH 8.0) | pH of the water sample (Water (pH)) ([1]; Water, 25° C., shaken 4 hours) | ED50 (liver) [3] | times more stable than C1 ([2]; depending on the pH, relative to C1)
1.25 mg | COc1ccc([C@@H]2[C@@H](CC[C@H](O)c3ccc(F)cc3)C(=O)N2c2ccc(CNC(=O)CCCCCCCCCCCNC(=O)[C@H](O)[C@@H](O)[C@H](O)[C@H](O)CO)cc2)cc1 [Example C1, reference compound] | 5 µg/mL (≈ 6.17 µM) | 6 µg/mL (≈ 7.41 µM) | 18 µg/mL (≈ 22.2 µM) | 20 µg/mL (≈ 24.7 µM) | < 1 µg/mL | < 1 µg/mL | < 1 µg/mL | < 1 µg/mL | ~5 mg | < 1 µg/mL | 13.3% | 0.5% | 4.6% |  |  | 
 | COc1ccc([C@@H]2[C@@H](CC[C@H](O)c3ccc(F)cc3)C(=O)N2c2ccc(CNC(=O)CCCCCCCCCCC(=O)NC[C@H](O)[C@@H](O)[C@H](O)[C@H](O)CO)cc2)cc1 [Example I, dodecanedioic acid 4-[(2S,3R)-3-[(S)-3-(4-fluorophenyl)-3-hydroxypropyl]-2-(4-methoxyphenyl)-4-oxoazetidin-1-yl]benzylamide ((2S,3R,4R,5R)-2,3,4,5,6-pentahydroxyhexyl)amide] | 28 µg/mL (≈ 34.6 µM) | 43 µg/mL (≈ 53.1 µM) | 454 µg/mL (≈ 561 µM) | 290 µg/mL (≈ 358 µM) | 3 µg/mL (≈ 3.7 µM) | 4 µg/mL (≈ 4.94 µM) | 2 µg/mL (≈ 2.47 µM) | 2 µg/mL (≈ 2.47 µM) | ~100 mg | 3 µg/mL (≈ 3.7 µM) | 4.9% | 0% | 0.2% | 6.8 | 0.005 mg/mouse | at least 2.7 times
